{"source": "PubChem BioAssay AID2060612", "about": "(Molecular Pharmacology Branch, DTP, NCI, 2025);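 note: spheroids exposed to compounds for 7 days before readout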;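 for viability, T/C: 100% = DMSO vehicle wells with luminescence normalized to vehicle control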", "test_system": "565232-114-T-J1-PDC complex spheroid viability", "assay": "Anticancer human tumor 565232-114-T-J1-PDC patient-derived bladder carcinoma cell line growth inhibition [CLK]", "details": "for IC50: curve of first compound; for viability, T/C: stronger effect = lower value", "description": "A high-throughput screen of multi-cell type tumor spheroids was designed to identify active combinations of […] and targeted small molecules. Complex spheroids include a stromal component modeled by human endothelial cells (HUVEC) and fibroblasts modeled by human mesenchymal stem cells (MSCs). The concentration ranges selected for each drug and investigational agent were based upon clinically achievable concentrations if the clinical Cmax of the agent was known.\nCompounds. The drugs and investigational agents: cirtuvivint (SM08502; NSC835563), CC-671 (NSC850746), vemurafenib (NSC761431), tapotoclax (NSC804041), sotorasib (NSC818433), adagrasib (NSC831453), MRTX-1133 (NSC836407), BAY2416964 (NSC825713), copanlisib (NSC816437), inavolisib (NSC800729), abemaciclib (NSC768073), osimertinib (NSC779217), entinostat (NSC756642), eltanexor (KPT-8602, NSC794443), venetoclax (NSC766270), ceralasertib (NSC777638), bortezomib (NSC756655), olaparib (NSC753686), talazoparib (NSC767125), alisertib (NSC759677), peposertib (NSC802822), gemcitabine (NSC613327), 5-fluorouracil (NSC19893), SN-38 (NSC673596), oxaliplatin (NSC266046), paclitaxel (NSC125973), and doxorubicin (NSC123127), were obtained from the National Cancer Institute (NCI) Developmental Therapeutics Program Chemical Repository. The FDA-approved anticancer drug set is available from the Developmental Therapeutics Program at https://dtp.cancer.gov/organization/dscb/obtaining/available plates.htm. […] The stock solutions were prepared in dimethyl sulfoxide (DMSO, Sigma-Aldrich, St. Louis, MO, cat. D2650), except for the platinum complexes which were prepared in saline (Quality Biological, Gaithersburg, MD, cat. 114-055-101), at 800-fold the tested concentration and stored at -70 degrees C prior to their use. All drugs and investigational agents were tested over a range starting from a high concentration at or near the clinical Cmax and decreasing in half-log increments. If the clinical Cmax for an agent had not been determined, the highest concentration tested was 10 microM.\nCell Culture. All cells were maintained in an incubator at 37 degrees C and 5% CO2 with 95% humidity. The PDC lines were cultured according to standard operating procedures established by the NCI PDMR. Briefly, all PDCs were thawed and cultured in Matrigel-coated flasks prepared with a working solution of 1X Ham's F-12 nutrient mix, without supplementation (Invitrogen, Waltham, MA, cat. 11765054), 100 U/mL penicillin-streptomycin (Invitrogen, cat. 15140122), and 2.5% Matrigel (Corning Inc., Corning, NY, cat. 354248) for the first three passages. The 947758-054-R-J2-PDC line was cultured in 6B/Colon 1A media, which includes advanced DMEM/F-12 (Thermo Fisher Scientific, cat. 12634028), 10 mM HEPES (Thermo Fisher Scientific, cat. 15630080), 1X GlutaMAX supplement (Thermo Fisher Scientific, cat. 35050061), 0.1 mg/mL primocin (InvivoGen, cat. ant-pm-2), 10% defined fetal bovine serum, heat inactivated (HyClone Laboratories Inc., cat. SH30070.03HI), 1.25 mM N-Acetyl-L-cysteine (Sigma-Aldrich, cat. A9165), 10 mM nicotinamide (Sigma-Aldrich, cat. N0636), 1X B-27 supplement (Thermo Fisher Scientific, cat. 17504044), 1X N-2 supplement (Thermo Fisher Scientific, cat. 17502048), and 10 microM Y-27632 dihydrochloride (Tocris Bioscience, cat. 1254). The 876862-298-R-J1-PDC was cultured in 6E media, which includes all 6B/Colon 1A media components plus 50% L-WRN conditioned media (ATCC, cat. CRL-3276), 50 ng/mL recombinant human EGF recombinant protein (hEGF; Thermo Fisher Scientific, cat. PHG0311), 10 ng/mL recombinant human fibroblast growth factor 10 (hGFG-10; PeproTech, cat. 100-26), 1 ng/mL recombinant human fibroblast growth factor 2 (hFGF-2; PeproTech, cat. 100-18B), and 1 µM prostaglandin E2 (PGE2; Tocris, cat. 2296). The 227483-062-R1-J1-PDC line was cultured in Panc media, containing all 6E components except hFGF-2, with the addition of 500 nM SB-431542 (Selleckchem, cat. S1067) and 10 nM gastrin (Tocris, cat. 3006). […]"}
{"smiles": "COc1ccc([C@@H](O)c2cc(-c3ncnc4cc(N5CCOCC5)ccc34)c(F)cc2Cl)nn1", "note": "+ CN1CCN(c2cc(C(=O)Nc3cc4cc(-c5cnn(C)c5)ccc4cn3)ccn2)CC1", "values": [{"measurement": "IC50", "setting": "second compound 0.0316 µM", "result": "> 10000", "unit": "nM"}, {"measurement": "IC50", "setting": "second compound 0.1 µM", "result": "> 10000", "unit": "nM"}, {"measurement": "IC50", "setting": "second compound 0.316 µM", "result": "< 31.6", "unit": "nM"}, {"measurement": "IC50", "setting": "second compound 1 µM", "result": "< 31.6", "unit": "nM"}, {"measurement": "IC50", "setting": "second compound 3.16 µM", "result": "< 31.6", "unit": "nM"}, {"measurement": "IC50", "setting": "second compound 10 µM", "result": "< 31.6", "unit": "nM"}, {"measurement": "viability, T/C", "setting": "second compound 0.0316 µM, first compound 0.0316 µM", "result": 87.3, "unit": "%"}, {"measurement": "viability, T/C", "setting": "second compound 0.0316 µM, first compound 0.1 µM", "result": 95.6, "unit": "%"}, {"measurement": "viability, T/C", "setting": "second compound 0.0316 µM, first compound 0.316 µM", "result": 88.1, "unit": "%"}, {"measurement": "viability, T/C", "setting": "second compound 0.0316 µM, first compound 1 µM", "result": 85.4, "unit": "%"}, {"measurement": "viability, T/C", "setting": "second compound 0.0316 µM, first compound 3.16 µM", "result": 96.9, "unit": "%"}, {"measurement": "viability, T/C", "setting": "second compound 0.0316 µM, first compound 10 µM", "result": 103, "unit": "%"}, {"measurement": "viability, T/C", "setting": "second compound 0.1 µM, first compound 0.0316 µM", "result": 88.1, "unit": "%"}, {"measurement": "viability, T/C", "setting": "second compound 0.1 µM, first compound 0.1 µM", "result": 91.6, "unit": "%"}, {"measurement": "viability, T/C", "setting": "second compound 0.1 µM, first compound 0.316 µM", "result": 86.3, "unit": "%"}, {"measurement": "viability, T/C", "setting": "second compound 0.1 µM, first compound 1 µM", "result": 113, "unit": "%"}, {"measurement": "viability, T/C", "setting": "second compound 0.1 µM, first compound 3.16 µM", "result": 105, "unit": "%"}, {"measurement": "viability, T/C", "setting": "second compound 0.1 µM, first compound 10 µM", "result": 97.9, "unit": "%"}, {"measurement": "viability, T/C", "setting": "second compound 0.316 µM, first compound 0.0316 µM", "result": 12.2, "unit": "%"}, {"measurement": "viability, T/C", "setting": "second compound 0.316 µM, first compound 0.1 µM", "result": 18.2, "unit": "%"}, {"measurement": "viability, T/C", "setting": "second compound 0.316 µM, first compound 0.316 µM", "result": 17.1, "unit": "%"}, {"measurement": "viability, T/C", "setting": "second compound 0.316 µM, first compound 1 µM", "result": 11.9, "unit": "%"}, {"measurement": "viability, T/C", "setting": "second compound 0.316 µM, first compound 3.16 µM", "result": 16.2, "unit": "%"}, {"measurement": "viability, T/C", "setting": "second compound 0.316 µM, first compound 10 µM", "result": 13.2, "unit": "%"}, {"measurement": "viability, T/C", "setting": "second compound 1 µM, first compound 0.0316 µM", "result": 0.83, "unit": "%"}, {"measurement": "viability, T/C", "setting": "second compound 1 µM, first compound 0.1 µM", "result": 0.2, "unit": "%"}, {"measurement": "viability, T/C", "setting": "second compound 1 µM, first compound 0.316 µM", "result": 1.54, "unit": "%"}, {"measurement": "viability, T/C", "setting": "second compound 1 µM, first compound 1 µM", "result": 0.18, "unit": "%"}, {"measurement": "viability, T/C", "setting": "second compound 1 µM, first compound 3.16 µM", "result": 0.2, "unit": "%"}, {"measurement": "viability, T/C", "setting": "second compound 1 µM, first compound 10 µM", "result": 1.34, "unit": "%"}, {"measurement": "viability, T/C", "setting": "second compound 3.16 µM, first compound 0.0316 µM", "result": 0.14, "unit": "%"}, {"measurement": "viability, T/C", "setting": "second compound 3.16 µM, first compound 0.1 µM", "result": 0.2, "unit": "%"}, {"measurement": "viability, T/C", "setting": "second compound 3.16 µM, first compound 0.316 µM", "result": 0.18, "unit": "%"}, {"measurement": "viability, T/C", "setting": "second compound 3.16 µM, first compound 1 µM", "result": 0.18, "unit": "%"}, {"measurement": "viability, T/C", "setting": "second compound 3.16 µM, first compound 3.16 µM", "result": 1.47, "unit": "%"}, {"measurement": "viability, T/C", "setting": "second compound 3.16 µM, first compound 10 µM", "result": 1.21, "unit": "%"}, {"measurement": "viability, T/C", "setting": "second compound 10 µM, first compound 0.0316 µM", "result": 0.1, "unit": "%"}, {"measurement": "viability, T/C", "setting": "second compound 10 µM, first compound 0.1 µM", "result": 0.16, "unit": "%"}, {"measurement": "viability, T/C", "setting": "second compound 10 µM, first compound 0.316 µM", "result": 0.24, "unit": "%"}, {"measurement": "viability, T/C", "setting": "second compound 10 µM, first compound 1 µM", "result": 0.19, "unit": "%"}, {"measurement": "viability, T/C", "setting": "second compound 10 µM, first compound 3.16 µM", "result": 0.2, "unit": "%"}, {"measurement": "viability, T/C", "setting": "second compound 10 µM, first compound 10 µM", "result": 1.44, "unit": "%"}]}
